Experimental data as given in patent US11781984B2, “Fluorescent method to quantify copper or platinum based on catalysis” (University of Pittsburgh—Of the Commonwealth System of …, priority 2018, dated 2023).
Where a name gives a salt, the structure may show the parent alone. Values belong to the compound of their own block, whether it stands above or below them.

Key:
[1] = Depropargylation of PPE with various metals and ligands (combinatorial screen); conditions: Cu^+ and Cu^2+ in the presence of ligand, 1.2 M pH 7.0 phosphate buffer/DMSO
Protocol: All fluorescence measurements were obtained using a Modulus II Microplate Multimode Reader. Fluorescence was measured after exciting samples with 490 nm light and emission was measured between 510-570 nm. All fluorescence measurements were obtained at room temperature. Metals and ligands were combinatorially screened in the presence of Propargyl Pittsburgh Green ether (PPE) to determine which metals and ligands facilitated the depropargylation reaction. Solid AgNO3 and Sr(NO3)2 were dissolved in 5% HNO3 (TraceMetal Grade) to a final concentration of 10 mM. AuCl3, CdCl2, CeCl3, COCl2, CuCl, CuCl2, […]7, FeSO4, FeCl3, HgCl2, MgCl2, KMnO4 NiCl2, Pb(OAc)4, Rh(OAc)2, RhCl3, RuCl3, and ZnCl2 were dissolved in 3% HCl (TraceMetal Grade) to a final concentration of 10 mM. Wilkinson's catalyst, as a source of Rh(I), was dissolved in DMSO to a final concentration of 5 mM. RuCl2(p-cymene) dimer was dissolved in DMSO to a final concentration of 5 mM (10 mM with respect to the monomer). Standard solutions of 1000 ppm Pt^2+ in 3% HCl and 1000 ppm Pd^2+ in 5% HNO3 were used. […] A mixture containing 1.2 M pH 7.0 phosphate buffer (177.2 mL), DMSO (19.42 mL), and 8.0 mM PPE (556 μL) was separated into 37 aliquots. […] These solutions containing the probe and ligand (180 μL), termed working solutions, were transferred to a black 96-well plate. The metal solutions were diluted to 10 μM using ultrapure water as the diluent. […] To analyze the data, each working solution was normalized, with the no metal sample normalized to 1.

[2] = Deallylation of APE with various metals and ligands (combinatorial screen); conditions: for facilitation of the deallylation of APE: ligand screen with APE
Protocol: In separate vials, 20-30 mg of each ligand was dissolved in DMSO containing 250 ppm butylated hydroxyl toluene (BHT) to a final concentration of 20 mM ligand. Working solutions containing the ligands were prepared by mixing 1.23 M pH 7 phosphate buffer (177.2 mL), DMSO (19.424 mL), and 8.0 mM APE in DMSO (556 μL). Aliquots of this mixture (4.944 mL) were placed into 15 mL conical tubes and 20 mM ligands and 250 ppm BHT in DMSO (55.5 μL) were added. […] Metals used in the experiments included AgNO3, AuCl3, CdCl2.2.5H2O, CeCsl3.3H2O, CoCl2.6H2O, […]7, CuCl, CuCl2.2H2O, FeSO4, FeCl3, HgCl2, MgCl2.6H2O, K2MnO4, NiCl2, Pb(OAc)2, RhCl(PPh3)3, Rh(Oac)2 dimer, […] (45.5% Rh), dichloro(p-cymene)ruthenium(II), RuCl3, Sr(NO3)2, and ZnCl2. In separate vials, 10 mM metal solutions were prepared by mixing 5-20 mg of the listed metals with dilute acid; all metals were dissolved in 3% HCl (TraceMetal Grade), with the exception of AgNO3, Sr(NO3)3, RhCl(PPh3)3, and dichloro(p-cymene)ruthenium(II). AgNO3 and Sr(NO3)3 were dissolved in 5% HNO3 (TraceMetal Grade); RhCl(PPh3)3 and dichloro(p-cymene)ruthenium(II) were dissolved in DMSO and the working solutions were adjusted to account for the solvent. The metal solutions were then diluted to 100 μM in 3% HCl or 5% HNO3 (TraceMetal Grade) or DMSO. […] For Pd, the 9.4 mM standard (21 μL) was added to 5% HNO3 (1.98 mL, TraceMetal Grade). For Pt, the 5.1 mM standard (39 μL) was added to 3% HCl (1.96 mL, TraceMetal Grade). To perform the assay, 10 μM metal solutions (20 μL) were added to the prepared working solutions (180 μL). The fluorescence was measured immediately and again after allowing the reaction to proceed for 1 h and 2 h at 25° C.

[3] = Distribution of copper between water and CHCl3 in the presence of DMAPPP; assay type: physicochemical; conditions: pH 7 buffer / CHCl3 biphasic system, DMAPPP present vs absent
Protocol: We questioned whether copper ions would be excreted from cells when bound to DMAPPP. As a model system, CuSO4 was suspended in a biphasic system (pH 7 buffer and CHCl3) in the presence or absence of DMAPPP. Three suspensions were prepared from these: 10 mM DMAPPP in CHCl3 (1.0 mL) and 5 mM CuSO4 in 1 mM phosphate pH 7.0 buffer (1.0 mL), CHCl3 (1.0 mL) and 5 mM CuSO4 in 1 mM phosphate pH 7.0 buffer (1.0 mL), and 10 mM DMAPPP in CHCl3 (1.0 mL) and 1 mM phosphate pH 7.0 buffer (1.0 mL). The suspensions were vortexed to ensure proper partitioning of the CuSO4 and DMAPPP. Aliquots of the aqueous and organic layers of each suspension (100 μL each) were then taken and evaporated. The residue following evaporation was resuspended in HBSS (100 μL).
The working solution was prepared by the addition of 50 mM pH 8.5 borate buffer (2.96 mL), EtOH (500 μL), 800 μM PPE in EtOH (100 μL), and 10 mM DMAPPP in DMSO (40 μL). The working solution (180 μL) was transferred to the wells of a black 96-well plate. The resuspended samples (20 μL) were then added to the wells and the fluorescence was measured.

[4] = Reactivity of platinum drugs after pre-incubation with LiCl or NaCl; conditions: 10 μM drug, 50 mM LiCl or NaCl, 20 μM APE, 400 μM TFPP, 25° C., 100 min
Protocol: We pre-incubated the drugs with either LiCl or NaCl before adding APE and TFPP.0 or 100 μM cisplatin, carboplatin, or oxaliplatin in DMSO (100 μL) were added to centrifuge tubes. To these tubes, 0 or 1 M LiCl or NaCl in water (100 μL) was added. The solutions were then allowed to incubate at room temperature for 4 h. The working solution was made by the addition of 1.2 M phosphate pH 7.8 buffer (8.86 mL), DMSO (721 μL), 800 μM APE in DMSO (278 μL), and 20 mM TFPP in 250 ppm BHT in DMSO (111 μL). The working solution (180 μL) was then transferred to the wells of a black 96-well plate. The platinum drugs (20 μL) were then transferred to the wells and the fluorescence was measured every 5 min for 100 min.

[5] = Reactivity of strongly-ligated platinum drugs with APE and TFPP; conditions: 10 μM drug, 45° C., 1 h
Protocol: We incubated carboplatin and oxaliplatin with APE and TFPP. […] Carboplatin and oxaliplatin were dissolved in DMSO. The solutions were diluted to a concentration of 100 μM in DMSO. 100 μM platinum drugs in DMSO or water (20 μL) were transferred to the wells of a black 96-well plate. The working solution was prepared by the addition of 1.2 M phosphate pH 7.8 buffer (17.60 mL), DMSO (1.43 mL), 800 μM APE in DMSO (550 μL), and 40 mM TFPP in 250 ppm BHT in DMSO (220 μL). The working solution (180 μL) was then transferred to the wells and the initial fluorescence was measured. The plate was then covered and allowed to incubate in a 45° C. oven for 1 h before the fluorescence was measured again.

[6] = test system: HeLa cells; assay: Fluorescence imaging of platinum in live HeLa cells; assay type: cell-based; conditions: 1 μM APE, 200 μM TFPP, 1 mM K2PtCl4, 20 min
Protocol: We then applied this method for cellular imaging. HeLa cells were seeded in 35-mm dishes and were incubated overnight in an incubator (37° C., 5% CO2 atmosphere) in DMEM supplemented with 10% bovine calf serum and 1% penicillin/streptomycin. Cells were loaded with APE and TFPP to a final concentration of 1 μM and 200 μM, respectively, in 1% DMSO in DMEM for 20 min. Following this, cells were washed twice with ˜2 mL HBSS. HBSS was used as the imaging medium. Brightfield images were taken, as well as the initial fluorescence image. Immediately after taking the first fluorescence image, a solution of K2PtCl4 in PBS was added to a final concentration of 1 mM.
Cellular images were taken using an Olympus IX81 microscope with a 10× objective. Brightfield images were taken using a 3 ms exposure. Fluorescence images were taken as a time series, with an image taken every 30 s for 20 min, using an 850 ms exposure. Images were processed using ImageJ software; background fluorescence was removed from the fluorescence images using a rolling ball radius of 50.0 pixels.

[7] = Detection of platinum in different oxidation states (APE/TFPP); conditions: APE and TFPP, 25° C.
Protocol: To determine whether our method depends on the oxidation state of platinum, we incubated the solution of APE and TFPP with a platinum(II) standard, K2PtCl4, K2PtCl6, or cisplatin for 10 min. Cisplatin (6.1 mg; 20 μmol) was dissolved in DMSO and diluted to a concentration of 10 μM. K2PtCl4 (5.6 mg; 13 μmol) and K2PtCl6 (6.8 mg; 14 μmol) were dissolved in water to a concentration of 10 μM. The Pt standard was diluted with ultrapure water to a concentration of 10 μM. The working solution was prepared by adding 1.2 M pH 7 phosphate buffer (8.86 mL), 800 μM APE in DMSO (278 μL), 20 mM TFPP and 250 ppm BHT in DMSO (111 μL), and DMSO (721 μL) in a 15-mL conical tube. The working solution (180 μL) and the Pt solutions (20 μL) were transferred in this order to black round-bottom 96-well plates. The reaction mixture was incubated at 25° C. for 1 h before the fluorescence was measured and reported. Average values and standard deviations are shown in FIG. 23 and “no Pt” is normalized to 1.

[8] = Selectivity of optimized APE/TFPP method for platinum over palladium; conditions: optimized salts, pH and TFPP concentration; 10 μM metals, 20 μM APE, 200 μM TFPP, pH 7.8
Protocol: FIG. 21: Relative reactivities of metals (10 μM) to APE with TFPP. 20 μM APE, 200 μM TFPP, pH 7.8, 25° C., 10 min, n=3.
Increased temperatures accelerated the deallylation, opening an avenue for even lower detection limits if necessary.

[9] = Pt^2+ and APE in the presence of ligand

Compound: Cc1ccc(P(c2ccc(C)cc2)c2ccc(C)cc2)cc1 [Compound 18, tri-p-tolylphosphine]
fluorescence signals (depropargylation of PPE) [1]: significantly increased the fluorescence signals | facilitation of the deallylation of APE [2]: facilitated the deallylation

copper concentration in the organic phase [3]: did not increase
Compound: CN(C)c1ccc(P(c2ccccc2)c2ccccc2)cc1 [Compound 9, 4-(dimethylamino)phenyl-diphenylphosphine]
fluorescence signals (depropargylation of PPE) [1]: greatly increased the fluorescence signals

Compound: COc1ccc(P(c2ccc(OC)cc2)c2ccc(OC)cc2)cc1 [Compound 15, tris(4-methoxyphenyl)phosphine]
fluorescence signals (depropargylation of PPE) [1]: significantly increased the fluorescence signals | facilitation of the deallylation of APE [2]: did not facilitate the deallylation

Compound: N.N.O=C([O-])C1(C(=O)[O-])CCC1.[Pt+2] [carboplatin]
effect of pre-incubation with LiCl or NaCl on detection [4]: increased fluorescence | reaction with APE and TFPP compared to no platinum [5]: little reaction

Compound: c1ccc(P(c2ccccc2)c2ccccc2)cc1 [Compound 34, triphenylphosphine]
fluorescence signals (depropargylation of PPE) [1]: significantly increased the fluorescence signals

Compound: O=C1[O][Pt]2([NH][C@@H]3CCCC[C@H]3[NH]2)[O]C1=O [oxaliplatin]
effect of pre-incubation with LiCl or NaCl on detection [4]: did not improve the detection | reaction with APE and TFPP compared to no platinum [5]: little reaction

Compound: FC(F)(F)c1ccc(P(c2ccc(C(F)(F)F)cc2)c2ccc(C(F)(F)F)cc2)cc1 [Compound 19, tris(4-trifluoromethylphenyl)phosphine]
facilitation of the deallylation of APE [2]: did not facilitate the deallylation

Compound: allyl Pittsburgh Green ether [APE]
increase of fluorescence intensity in cells [6]: 1.5 fold

Compound: O=S(=O)([O-])c1cccc(P(c2ccccc2)c2ccccc2)c1.[Na+] [Compound 2, 3-(diphenylphosphino)bezenesulfonic acid sodium salt]
fluorescence signals (depropargylation of PPE) [1]: significantly increased the fluorescence signals

Compound: N.N.[Cl][Pt][Cl] [cisplatin]
effect of pre-incubation with LiCl or NaCl on detection [4]: did not improve the detection | reactivity of platinum species (fluorescence signal) [7]: exhibited reactivity, although it was lower than the inorganic species

Compound: O=S(=O)(O)c1cccc(P(c2cc(C(F)(F)F)cc(C(F)(F)F)c2)c2cccc(S(=O)(=O)O)c2)c1 [Compound 12, bis(3-sulfonatophenyl)(3,5-di-trifluoromethylphenyl)phosphine disodium salt]
facilitation of the deallylation of APE [2]: facilitated the deallylation

Compound: Fc1ccc(P(c2ccc(F)cc2)c2ccc(F)cc2)cc1 [Compound 13, tris(4-fluorophenyl)phosphine]
rate relative to previously reported Pt-Ph3P catalysis ([2]; 200 μM TFPP): 4 times | fluorescence signal relative to background signal [2, 9]: 40 fold | fluorescence signal relative to the corresponding signal from Pd^2+ [2, 9]: 10 fold | facilitation of the deallylation of APE [2]: facilitated the deallylation | selectivity for platinum over palladium [8]: 14 times
